Results taken from US10160726B2, “Quinolone derivatives as antibacterials” (priority 2014, dated 2018).
≈ marks a conversion by molar mass, not a printed value. Like-named read-outs stand apart in the source and are kept apart here.

What was measured:
Assay type in all cases: cell-based
[1] = tested on: S. aureus NB01006-AVR005 (gyrA S84L, grlA S80F, grlB E471K); test: microbe, parasite or virus in culture; conditions: Staphylococcus aureus, 20 h, read-out: Antibacterial activity (MIC) NB01006-AVR005
[2] = tested on: P. aeruginosa NB52023-CDK0006 (gyrA T83I, parC S87L); test: microbe, parasite or virus in culture; conditions: Pseudomonas aeruginosa, 20 h, read-out: Antibacterial activity (MIC) NB52023-CDK0006
[3] = tested on: E. coli ATCC 25922 (NB27001); test: MIC, broth microdilution (CLSI); conditions: Escherichia coli, ATCC25922; E. coli ATCC 25922; 35° C., 20 hours; read-out: Antibacterial activity (MIC) NB27001
[4] = tested on: E. coli NB27177 (efflux deficient CGSC 11430, ΔtolC732::kan); test: microbe, parasite or virus in culture; conditions: Escherichia coli, 20 h, read-out: Antibacterial activity (MIC) NB27177
[5] = tested on: S. aureus ATCC 29213 (NB01001); test: MIC, broth microdilution (CLSI); conditions: Staphylococcus aureus, ATCC29213; S. aureus ATCC 29213; 35° C., 20 hours; read-out: Antibacterial activity (MIC) NB01001
[6] = tested on: P. aeruginosa NB52019 (wild-type PAO1); test: MIC, broth microdilution (CLSI); conditions: Pseudomonas aeruginosa, read-out: Antibacterial activity (MIC) NB52019
[7] = tested on: P. aeruginosa NB52023 (efflux deficient K1542, ΔmexX ΔmexB); test: microbe, parasite or virus in culture; conditions: Pseudomonas aeruginosa, 20 h, read-out: Antibacterial activity (MIC) NB52023
[8] = P. aeruginosa wild-type PAO1, 35° C., 20 hours

Compound | MIC [1] [µg/mL] | MIC [2] [µg/mL] | MIC [3] [µg/mL] | MIC [4] [µg/mL] | MIC [5] [µg/mL] | MIC ([6]; PAO1, 20 h) [µg/mL] | MIC [7] [µg/mL] | MIC [6, 8] [µg/mL]
COc1cc2cc(F)c(N3CC[C@@H]([C@H](C)N)C3)c(C)c2n(C2CC2)c1=O [Example 6, 7-((R)-3-((S)-1-aminoethyl)pyrrolidin-1-yl)-1-cyclopropyl-6-fluoro-3-methoxy-8-methylquinolin-2(1H)-one] | 0.5 (≈ 1.39 µM) | 32 (≈ 89 µM) | 2 (≈ 5.56 µM) | 0.125 (≈ 0.348 µM) | 0.125 (≈ 0.348 µM) | 32 (≈ 89 µM) | 8 (≈ 22.3 µM) | 
COc1cc2cc(F)c(-c3ccc(N)nc3)c(C)c2n(C2CC2)c1=O [Example 7, 7-(6-aminopyridin-3-yl)-1-cyclopropyl-6-fluoro-3-methoxy-8-methylquinolin-2(1H)-one] | 4 (≈ 11.8 µM) | > 32 | 32 (≈ 94.3 µM) | 0.25 (≈ 0.737 µM) | 2 (≈ 5.89 µM) | > 32 | > 32 | 
Cc1c(N2CC[C@@H]([C@H](C)N)C2)c(F)cc2c(-c3cn[nH]c3)cc(=O)n(C3CC3)c12 [Example 18, 7-((R)-3-((S)-1-aminoethyl)pyrrolidin-1-yl)-1-cyclopropyl-6-fluoro-8-methyl-4-(1H-pyrazol-4-yl)quinolin-2(1H)-one] | 0.25 (≈ 0.632 µM) | 16 (≈ 40.5 µM) | 32 (≈ 80.9 µM) | 0.125 (≈ 0.316 µM) | 0.5 (≈ 1.26 µM) | 32 (≈ 80.9 µM) | 8 (≈ 20.2 µM) | 
Cc1c(N2CC[C@@H]([C@H](C)N)C2)c(F)cc2c(-c3ccccc3)cc(=O)n(C3CC3)c12 [Example 19, 7-((R)-3-((S)-1-aminoethyl)pyrrolidin-1-yl)-1-cyclopropyl-6-fluoro-8-methyl-4-phenylquinolin-2(1H)-one] | 0.5 (≈ 1.23 µM) | > 32 | 32 (≈ 78.9 µM) | 0.5 (≈ 1.23 µM) | 0.5 (≈ 1.23 µM) |  | > 32 | > 32
Cc1c(N2CC[C@@H]([C@H](C)N)C2)c(F)cc2c(-c3cc(F)c(O)c(F)c3)cc(=O)n(C3CC3)c12 [Example 20, 7-((R)-3-((S)-1-aminoethyl)pyrrolidin-1-yl)-1-cyclopropyl-4-(3,5-difluoro-4-hydroxyphenyl)-6-fluoro-8-methylquinolin-2(1H)-one] | 0.25 (≈ 0.546 µM) | 16 (≈ 35 µM) | 32 (≈ 69.9 µM) | 0.125 (≈ 0.273 µM) | 0.5 (≈ 1.09 µM) | > 32 | 32 (≈ 69.9 µM) | 
CCOC(=O)/C=C/c1cc(=O)n(C2CC2)c2c(C)c(N3CC[C@@H]([C@H](C)N)C3)c(F)cc12 [Example 21, (E)-ethyl 3-(7-((R)-3-((S)-1-aminoethyl)pyrrolidin-1-yl)-1-cyclopropyl-6-fluoro-8-methyl-2-oxo-1,2-dihydroquinolin-4-yl)acrylate] | 0.125 (≈ 0.292 µM) | 32 (≈ 74.9 µM) | 16 (≈ 37.4 µM) | 0.125 (≈ 0.292 µM) | 0.125 (≈ 0.292 µM) | > 32 | 32 (≈ 74.9 µM) | 
Cc1c(N2CC[C@H](O)C2)c(F)c(F)c2c(CN3CCN(C)CC3)cc(=O)n(C3CC3)c12 [Example 90, (S)-1-cyclopropyl-5,6-difluoro-7-(3-hydroxypyrrolidin-1-yl)-8-methyl-4-((4-methylpiperazin-1-yl)methyl)quinolin-2(1H)-one trifluoro acetic acid] | 0.125 (≈ 0.289 µM) | 32 (≈ 74 µM) | 16 (≈ 37 µM) |  | 0.125 (≈ 0.289 µM) | > 32 | 32 (≈ 74 µM) | 
Cc1c(N2CCC(F)(CN)C2)c(F)cc2cc(CO)c(=O)n(C3CC3)c12 (stereo not drawn) [Example 96, 7-(3-(aminomethyl)-3-fluoropyrrolidin-1-yl)-1-cyclopropyl-6-fluoro-3-(hydroxymethyl)-8-methylquinolin-2(1H)-one] | 1 (≈ 2.75 µM) | 8 (≈ 22 µM) | 2 (≈ 5.5 µM) |  | 0.5 (≈ 1.38 µM) | 32 (≈ 88.1 µM) | 8 (≈ 22 µM) | 
COc1c(N2CCC(CN)C2)c(F)cc2ccc(=O)n(C3CC3)c12.O=C(O)C(F)(F)F (stereo not drawn) [Example 110, 7-(3-(aminomethyl)pyrrolidin-1-yl)-1-cyclopropyl-6-fluoro-8-methoxyquinolin-2(1H)-one TFA salt] | 0.125 | 32 | 4 |  | 0.25 |  | 16 | > 32
